Assay results published in patent US11440900B2, “Agricultural chemicals” (GLOBACHEM NV, priority 2018, dated 2022).

Experiments:
Assay type in all cases: cell-based
Botrytis cinerea = test: Fungicidal activity screen in amended agar, 96 well plates, Botrytis cinerea; conditions: fungal growth vs DMSO control, Medium N agar, 5,000 spores/ml, 20, 2, 0.2 and 0.02 ppm, 18° C., assessed after 3 to 4 days, read-out: Botrytis EC50 ranking
Experimental: (§1) Compounds were screened in 96 well plates with 10 compounds per plate. Each compound was screened using agar amended to 20, 2, 0.2 and 0.02 ppm of the test material. Proline at 50 and 10 ppm and 0.2% DMSO were used respectively as positive and negative controls. Each test concentration and standard were tested twice on a plate.
(§2) Compounds were screened against the following three fungal pathogens—Botrytis cinerea, Alternaria alternata and Zymoseptoria tritici. The agar used in the test varied depending on the pathogen with Medium N used for B. cinerea and A. alternata and 1% potato dextrose agar for Z. tritici. For each pathogen sufficient spores were added to the appropriate agar to give 1,000 spores/ml agar of A. alternata, 5,000 spores/ml agar of B. cinerea and 10,000 spores/ml agar of Z. tritici.
(§3) A ×10 stock solution in 2% DMSO was produced for each dose i.e. 200, 20, 2 and 0.2 ppm, and 10 μl of this added to the appropriate wells on the plate. An equivalent amount of 2% DMSO and Proline stock at 500 and 100 ppm were added for the controls. To each well 90 μl of the appropriate agar spore suspension was added to give the final well concentrations outlined in the first paragraph.
(§4) Plates were incubated at room temperature (18° C.) and assessed after • a) 3 to 4 days A. alternata and B. cinerea • b) 7 days for Z. tritici
(§5) The amount of fungal growth in each well was compared to the DMSO controls and scored according to the following key • 0—no growth (100% control) • 1—growth reduced by 75% compared to DMSO control (25% growth) • 2—growth reduced by 50% compared to DMSO control (50% growth) • 3—growth reduced by 25% compared to DMSO control growth (75% growth) • 4—no reduction in growth compared to DMSO control growth (100% growth)
(§6) Those numbers were then used to give an EC50. The ranking in the table is: • A) EC50<20 ppm, B) EC50≥20ppm

Alternaria alternata = test: Fungicidal activity screen in amended agar, 96 well plates, Alternaria alternata; conditions: fungal growth vs DMSO control, Medium N agar, 1,000 spores/ml, 20, 2, 0.2 and 0.02 ppm, 18° C., assessed after 3 to 4 days, read-out: Alternaria EC50 ranking
Experimental: as §1, §2, §3, §4, §5, §6

Zymoseptoria tritici = test: Fungicidal activity screen in amended agar, 96 well plates, Zymoseptoria tritici; conditions: 168 h, fungal growth vs DMSO control, 1% potato dextrose agar, 10,000 spores/ml, 20, 2, 0.2 and 0.02 ppm, 18° C., assessed after 7 days, read-out: Zymoseptoria EC50 ranking
Experimental: as §1, §2, §3, §4, §5, §6

Row | Compound | EC50 (Botrytis cinerea) | EC50 (Alternaria alternata) | EC50 (Zymoseptoria tritici)
1 | Cc1ncnc(-n2cnc3cc(F)cc(F)c32)c1-c1ccc(F)cc1Cl [Example 1, 1-(5-(2-Chloro-4-fluorophenyl)-6-methylpyrimidin-4-yl)-5,7-difluoro-1H-benzo[d]imidazole] | < 20 µg/mL | < 20 µg/mL | < 20 µg/mL
2 | COc1ccc(-c2c(C)ncnc2-n2cnc3cc(F)cc(F)c32)c(Cl)c1 [Example 2] | < 20 µg/mL | < 20 µg/mL | < 20 µg/mL
3 | Cc1ncnc(-n2cnc3cc(F)cc(F)c32)c1-c1ccccc1Cl [Example 3] | < 20 µg/mL | < 20 µg/mL | < 20 µg/mL
4 | Cc1ccnc(-n2cnc3cc(F)cc(F)c32)c1-c1ccc(F)cc1Cl [Example 4] | < 20 µg/mL | < 20 µg/mL | < 20 µg/mL
5 | Fc1ccc(-c2c(-n3cnc4cc(F)cc(F)c43)ccnc2Cl)c(Cl)c1 [Example 5] | < 20 µg/mL | < 20 µg/mL | < 20 µg/mL
6 | Cc1cccc(-n2cnc3cc(F)cc(F)c32)c1-c1ccc(F)cc1Cl [Example 6] | < 20 µg/mL | < 20 µg/mL | < 20 µg/mL
7 | COc1cc(F)c(-c2c(C)cccc2-n2cnc3cc(F)cc(F)c32)c(F)c1 [Example 7] | < 20 µg/mL | < 20 µg/mL | < 20 µg/mL
8 | Cc1cccc(-n2cnc3ccccc32)c1-c1ccc(F)cc1Cl [Example 8] | < 20 µg/mL | < 20 µg/mL | < 20 µg/mL
9 | Cc1cccc(-n2cnc3cc(Cl)ccc32)c1-c1ccc(F)cc1Cl [Example 9] | < 20 µg/mL | < 20 µg/mL | < 20 µg/mL
10 | Cc1ccc2c(c1)ncn2-c1cccc(C)c1-c1ccc(F)cc1Cl [Example 10] | < 20 µg/mL | < 20 µg/mL | < 20 µg/mL
11 | COc1ccc(-c2c(C)ncnc2-n2cnc3cc(Cl)cc(F)c32)c(Cl)c1 [Example 11] | < 20 µg/mL | < 20 µg/mL | < 20 µg/mL
12 | Cc1ncnc(-n2cnc3cc(Cl)cc(F)c32)c1-c1ccc(F)cc1Cl [Example 12] | < 20 µg/mL | < 20 µg/mL | < 20 µg/mL
13 | COc1ccc(-c2c(-n3cnc4cc(Cl)cc(F)c43)ccnc2Cl)c(Cl)c1 [Example 13] | < 20 µg/mL | < 20 µg/mL | < 20 µg/mL
14 | Fc1ccc(-c2c(-n3cnc4cc(Cl)cc(F)c43)ccnc2Cl)c(Cl)c1 [Example 14] | < 20 µg/mL | < 20 µg/mL | < 20 µg/mL
15 | C#CCOc1ccc2c(c1)ncn2-c1ccnc(Cl)c1-c1ccc(F)cc1Cl [Example 15] | < 20 µg/mL | < 20 µg/mL | < 20 µg/mL
16 | Cc1ccnc(-n2cnc3cc(Cl)cc(F)c32)c1-c1ccc(F)cc1Cl [Example 16] | < 20 µg/mL | < 20 µg/mL | < 20 µg/mL
17 | C#CCOc1ccc2c(c1)ncn2-c1nccc(C)c1-c1ccc(F)cc1Cl [Example 17] | < 20 µg/mL | < 20 µg/mL | < 20 µg/mL
18 | COc1ccc(-c2c(-n3cnc4cc(Br)cc(F)c43)ccnc2Cl)c(Cl)c1 [Example 18] | < 20 µg/mL | < 20 µg/mL | < 20 µg/mL
19 | COc1cc(F)c(-c2c(C)ncnc2-n2cnc3cc(Cl)cc(F)c32)c(F)c1 [Example 19] | < 20 µg/mL | < 20 µg/mL | < 20 µg/mL
20 | COc1ccc(-c2c(-n3nnc4cc(Cl)cc(F)c43)ccnc2Cl)c(Cl)c1 [Example 20, 5-Chloro-1-(2-chloro-3-(2-chloro-4-methoxyphenyl)pyridin-4-yl)-7-fluoro-1H-benzo[d][1,2,3]triazole] | < 20 µg/mL | < 20 µg/mL | < 20 µg/mL
21 | Cc1ncnc(-n2nnc3cc(Cl)cc(F)c32)c1-c1ccc(F)cc1Cl [Example 21] | < 20 µg/mL | ≥ 20 µg/mL | < 20 µg/mL
22 | COc1ccc(-c2c(C)ncnc2-n2nnc3cc(Cl)cc(F)c32)c(Cl)c1 [Example 22] | < 20 µg/mL | ≥ 20 µg/mL | < 20 µg/mL
23 | Cc1ccnc(-n2nnc3cc(Cl)cc(F)c32)c1-c1ccc(F)cc1Cl [Example 23] | < 20 µg/mL | < 20 µg/mL | < 20 µg/mL
24 | COc1ccc(-c2c(C)ccnc2-n2nnc3cc(Cl)cc(F)c32)c(Cl)c1 [Example 24] | < 20 µg/mL | ≥ 20 µg/mL | < 20 µg/mL
25 | Fc1ccc(-c2c(-n3nnc4cc(Cl)cc(F)c43)ccnc2Cl)c(Cl)c1 [Example 25] | < 20 µg/mL | < 20 µg/mL | < 20 µg/mL
26 | COc1ccc(-c2c(-n3nnc4cc(Br)cc(F)c43)ccnc2Cl)c(Cl)c1 [Example 26] | < 20 µg/mL | ≥ 20 µg/mL | ≥ 20 µg/mL
27 | Fc1ccc(-c2c(-n3cnc4cc(F)ccc43)cnnc2Cl)c(Cl)c1 [Example 27] | < 20 µg/mL | ≥ 20 µg/mL | < 20 µg/mL
